Entries after “also recorded” stand apart in the source; their conditions may differ. Read-outs that look alike come from different tables or passages of the source.
Tests used:
mast cells = details: cited from earlier work; for IC50: read-out: IC50 (μM) degranulation of mast cells; for ranking of activity in the anti-allergy model: mast cell degranulation
TNFα = details: cited from earlier work
[1] = tested on: histamine, TNFα and IL-1B induced by IgE; details: mouse and rat model; cited from earlier work
[2] = tested on: Recurrent airway obstruction (RAO); assay: double-blind placebo controlled clinical trial on recurrent airway obstruction in horses; type: in vivo; details: horses with RAO
From the text: A Double-Blind Placebo Controlled Clinical Trial comparing the Efficacy of the Green Lipped Mussel Lipid Extract and Flavonoid alone and in Combination on Recurrent Airway Obstruction in Horses.
Recurrent airway obstruction (RAO), an equine asthma, is a chronic inflammatory disease of the airways typified by bronchoconstriction, wheezing and increased mucous production and caused by allergy to fungal and other dusts but mediated, in part, by leukotrienes and other lipid mediators. […] Studies included clinical status, exercise recovery, breath condensate, broncho-alveolar lavage, cytology and mucous scorings.
Eight horses aged 9-21 with RAO symptoms and cytology consistent with the accepted definition of RAO were recruited.
The study was a double blind randomized, placebo controlled trial. […]
Subjects were clinically and endoscopically examined and BAL and condensate collected and frozen in liquid nitrogen every two weeks. […] The BAL cytology was scored by neutrophil count. Mucous was scored by location, type, volume and viscosity. […]
The clinical assessments scores were assessed as a mean clinical RAO score. The clinical assessments were evaluated on a scale of 1-10 where 1 was severe disease symptomology and 10 indicated a disease-free condition score and the results are shown in Table 1 and FIG. 3. […]

TPA-induced ear oedema = details: cited from earlier work
[3] = tested on: antigen-induced bronchoconstriction and airway hyper-reactivity; details: oral, before and after sensitisation; ovalbumin; cited from earlier work
[4] = in vitro; cited from earlier work
LTB4 production = details: 9 g/day; cited from earlier work

O=c1c(O)c(-c2ccccc2)oc2ccc(O)cc12 [3,6-dihydroxyflavone]
IC50 (mast cells): 6 µM

O=c1c(O)c(-c2ccccc2)oc2ccccc12 [3-hydroxyflavone]
IC50 (mast cells): > 100 µM

O=c1cc(-c2ccccc2)oc2ccc(O)cc12 [6-hydroxyflavone]
IC50 (mast cells): 28 µM

O=c1cc(-c2ccccc2)oc2cc(O)ccc12 [7-hydroxyflavone]
IC50 (mast cells): 21 µM

O=c1cc(-c2ccc(O)cc2)oc2cc(O)cc(O)c12 [Apigenin]
ranking of activity in the anti-allergy model (mast cells): most active | IC50 (mast cells): 4.5 µM | oral in vivo anti-TNFα activity (TNFα): potent

O=c1cc(-c2ccccc2)oc2cc(O)c(O)c(O)c12 [Baicalein]
IC50 (mast cells): 17 µM | potency on IgE-induced histamine, TNFα and IL-1B production versus other agents [1]: more potent than many other agents

O=c1cc(-c2ccccc2)oc2cc(O)cc(O)c12 [Chrysin]
IC50 (mast cells): > 100 µM

COc1ccc(-c2cc(=O)c3c(O)cc(O)cc3o2)cc1O [Diosmetin]
ranking of activity in the anti-allergy model (mast cells): most active

COc1ccc(-c2cc(=O)c3c(O)cc(O[C@@H]4O[C@H](CO[C@@H]5O[C@@H](C)[C@H](O)[C@@H](O)[C@H]5O)[C@@H](O)[C@H](O)[C@H]4O)cc3o2)cc1O [Diosmin]
IC50 (mast cells): > 100 µM

O=c1c(O)c(-c2ccc(O)c(O)c2)oc2cc(O)ccc12 [Fisetin]
ranking of activity in the anti-allergy model (mast cells): most active | IC50 (mast cells): 3.3 µM

O=c1cc(-c2ccccc2)oc2ccccc12 [Flavone]
IC50 (mast cells): > 100 µM

O=c1c(O)c(-c2ccccc2)oc2cc(O)cc(O)c12 [Galangin]
IC50 (mast cells): 40 µM

O=c1c(O)c(-c2ccc(O)cc2)oc2cc(O)cc(O)c12 [Kaempferol]
IC50 (mast cells): 7.5 µM

O=c1cc(-c2ccc(O)c(O)c2)oc2cc(O)cc(O)c12 [Luteolin]
Mean clinical RAO score ([2]; 4 capsules per day, 28 days, scale 1-10, 1 severe, 10 disease-free): 3.38^ade | improvement of respiratory function ([2]; versus placebo): significantly (P<0.001) improved | ranking of activity in the anti-allergy model (mast cells): most potent | ranking of activity in the anti-allergy model (mast cells; listed as luteolin): most active | IC50 (mast cells): 1.8 µM | oral in vivo anti-TNFα activity (TNFα): potent; also recorded: more potent than apigenin; also recorded: inhibited | oral anti-inflammatory activity, TPA ear oedema (TPA-induced ear oedema): effective | potency on IgE-induced histamine, TNFα and IL-1B production versus other agents [1]: more potent than many other agents | antigen-induced bronchoconstriction and airway hyper-reactivity [3]: significantly reduced

O=c1c(O)c(-c2ccc(O)cc2O)oc2cc(O)cc(O)c12 [Morin]
IC50 (mast cells): 51 µM

O=c1c(O)c(-c2cc(O)c(O)c(O)c2)oc2cc(O)cc(O)c12 [Myricetin]
IC50 (mast cells): 6.7 µM | antioxidant efficiency versus traditional vitamins [4]: more efficient antioxidants than traditional vitamins

O=c1c(O)c(-c2ccc(O)c(O)c2)oc2cc(O)cc(O)c12 [Quercetin]
ranking of activity in the anti-allergy model (mast cells): most active | IC50 (mast cells): 3 µM | oral anti-inflammatory activity, TPA ear oedema (TPA-induced ear oedema): effective | potency on IgE-induced histamine, TNFα and IL-1B production versus other agents [1]: more potent than many other agents | antioxidant efficiency versus traditional vitamins [4]: more efficient antioxidants than traditional vitamins

CC/C=C\C/C=C\C/C=C\CCCCCCCC(=O)O [a-LNA, a-linolenic acid]
LTB4 production and pulmonary function (LTB4 production): inhibit LTB4 production and improve pulmonary function
